Measurements published in patent US20260125374A1, “PI3K-ALPHA INHIBITORS AND METHODS OF MAKING AND USING THE SAME” (Relay Therapeutics, Inc., priority 2021, published 2026).
Marks after values point to notes of the source that are not given here.

Key:
[1] = system: PIK3CA-mediated AKT phosphorylation in MCF10A cells overexpressing hotspot PIK3CA mutations (H1047R, E542K, E545K); experiment: MCF10A Cell-Based PIK3CA Kinase Assay (CisBio Phospho-AKT (Ser473) HTRF assay); conditions: Homo sapiens, MCF-10A, 2 hours compound incubation, read-out: Cell - PD - MCF10A H1047R/−−2483 (IC50)
Protocol: Selected compounds of the present disclosure were tested in a MCF10A Cell-Based PIK3CA Kinase Assay, namely the CisBio Phospho-AKT (Ser473) HTRF assay, to measure the degree of PIK3CA-mediated AKT phosphorylation. MCF10A cells (immortalized non-transformed breast cell line) overexpressing hotspot PIK3CA mutations (including H1047R, E542K, and E545K mutations) were used. Cells were seeded at 5,000 cells per well in DMEM/F12 (Thermo Fisher Scientific) supplemented with […], 100 ng/ml Cholera Toxin, 10 μg/mL insulin, and 0.5% horse serum. Once plated, cells were placed in a 5% CO2, 37° C. incubator to adhere overnight.
The following day, compounds were added to the cell plates in 12 doses of 1:3 serial dilutions. The dose response curves were run in duplicate. Compound addition was carried out utilizing an Echo 55 Liquid Handler acoustic dispenser (Labcyte). The cell plates were incubated for 2 hours in a 5% CO2, 37° C. incubator. Following compound incubation, the cells were lysed for 60 min at room temperature. Finally, a 4-hour incubation with the HTRF antibodies was performed at room temperature. All reagents, both lysis buffer and antibodies, were used from the CisBio pAKT S473 HTRF assay kit, as per the manufacturers protocol. Plates were read on an Envision 2105 (Perkin Elmer), and the IC50 values were calculated using Genedata software.

[2] = Solubility in DCM/Methanol mixtures; format: physicochemical
Protocol: The solubility was evaluated on various ratio of DCM and Methanol mixtures.

[3] = Stability of III-1 & I-1 solid; format: physicochemical; conditions: after 38 days; initial 99.0%
[4] = Stability of the process (III-1 in solution); format: physicochemical
[5] = Polymorph screening (equilibration, anti-solvent, slow evaporation, slow cooling, temperature cycling, heating-cooling; XRPD and SFC); format: physicochemical
Protocol: This polymorph screening program of compound I-1 free form was performed with two batches of the pure enantiomer. Both batches are crystalline and is assigned as Form A. The polymorphic behaviors of the enantiomer were investigated by equilibration at 25° C. and 50° C., equilibration under a temperature cycle, crystallization from hot saturated solutions by slow cooling, slow evaporation, precipitation by addition of anti-solvent, and DSC heating-cooling cycle experiments. Relative stability of identified polymorphs was investigated by competitive slurry experiments.
(§1) About 50 mg of I-1 Form A was weighed into a 2 mL glass vial and equilibrated in suitable amount of solvents (pretreated by molecular sieves) at 25° C. for 2 weeks with a stirring plate and with protection from light. Obtained suspensions were filtered with 0.45 μm nylon membrane and the solid parts (wet cake) were investigated by XRPD. When differences were observed, additional investigations were performed (e.g. DSC, TGA, ^1H-NMR, SFC).
as §1, with “into” for “into a”, “vials” for “vial”, “50°” for “25°”, “10 days” for “2 weeks”, “investigation was” for “investigations were”
I-1 Form A was dissolved in a good solvent. […] The solvents used were pretreated by molecular sieve. Precipitates were collected by filtration. The solid part (wet cake) was investigated by XRPD. […] When differences were observed, additional investigations were performed (e.g. DSC, TGA, ^1H-NMR, SFC).
Based on approximate solubility results, I-1 Form A was dissolved in suitable amount of solvents (pretreated by molecular sieves). Obtained solutions were filtered by 0.45 μm nylon filter. […] Solid residues were examined for their polymorphic form. When differences were observed, additional investigations were performed (e.g. DSC, TGA, ^1H-NMR, SFC).
Approximate 50 mg of batch I-1 Form A were dissolved in the minimal amount of selected solvents (without pretreatment by molecular sieves) at 50° C. Obtained solutions were filtered by 0.45 μm nylon filter. […] Precipitates were collected by filtration. The solid parts (wet cake) were investigated by XRPD. When differences were observed, additional investigations were performed (e.g. DSC, TGA, ^1H-NMR, SFC). When no precipitation was obtained or only a few solids were obtained, the solutions were placed at 5° C. for crystallization.
About 50 mg of I-1 Form A was equilibrated in different solvents (pretreated by molecular sieves) under a temperature cycle between 5° C. to 50° C. at a heating/cooling rate of 0.2° C./min for 10 cycles and with protection from light. After 10 cycles, precipitates were collected at 5° C. by filtration. The solid parts (wet cake) were investigated by XRPD. When differences were observed, additional investigations were performed (e.g. DSC, TGA, 1H-NMR, SFC).
Polymorphic behavior of I-1 Form A was investigated by two different heating-cooling cycles of DSC. Cycle 1:30° C. to 280° C. at 10° C./min; 280° C. to −20° C. at 20° C./min; reheat to 300° C. at 10° C./min. Cycle 2:30° C. to 280° C. at 10° C./min; 280° C. to-20° C. at 2° C./min; reheat to 300° C. at 10° C./min.

[6] = Before stirring, 3 g product in solution
[7] = dissolved in DCM/MeOH/DMF, concentrated to 3V, 16 h, 40° C.
[8] = dissolved in MeOH, 34 h, 50° C.
[9] = dissolved in MeOH, 42 h, 50° C.
[10] = dissolved in MeOH, 60 h, 50° C.
[11] = dissolved in MeOH, stirred 18 h, 34° C.

In the case of `[2H][C@@]1(c2cc(F)ccc2Cl)NC(=O)c2cc(-c3ccc4ncnn4c3C#N)cc(NC(=O)c3cc(F)cc(C(F)(F)F)c3)c21` [IV-2], the IC50 [1] is reported as at most 1 µM.
With `N#Cc1c(-c2cc(NC(=O)c3cc(F)cc(C(F)(F)F)c3)c3c(c2)C(=O)NC3c2cc(F)ccc2Cl)ccc2ncnn12` (racemic) [III-1, N-(3-(2-chloro-5-fluorophenyl)-6-(5-cyano-[1,2,4]triazolo[1,5-a]pyridin-6-yl)-1-oxoisoindolin-4-yl)-3-fluoro-5-(trifluoromethyl)benzamide] the “solubility in DCM/MeOH=90:10 mixture” value [2] was “limited solubility”, the “purity of solid after storage” value [3] was 99.1% and the “HPLC/RRT Purity, RRT 1.00 (purity of III-1)” value [4, 6] was 96.23%. For the same compound, the “HPLC/RRT Purity, impurity at RRT 0.41” value [4, 6] was 0.10%, the “HPLC/RRT Purity, impurity at RRT 0.94” value [4, 6] was 0.62% and the “HPLC/RRT Purity, impurity at RRT 1.37” value [4, 6] was 1.98%. The “HPLC/RRT Purity, impurity at RRT 1.38” value [4, 6] was 0.31%, the “impurity @RRT 1.26 generated” value ([4]; DCM/MeOH/DMF concentrated to 3V, 17 h at 40° C.) was 0.15% and the “impurity @RRT 0.74 generated” value ([4]; MeOH, over 18 h at 34° C.) was 0.15%. The “purity after stirring in MeOH” value ([4]; MeOH, over 18 h at 34° C.) was 96.0%, the “impurity @RRT 0.74” value ([4]; MeOH, over 60 h at 50° C.) was 3.44% and the “purity after stirring in DCM/MeOH/DMF” value ([4]; concentrated to 3V under 40° C., stirred for 17 h at 40° C.) was 94.57%. For the same compound, the “HPLC/RRT Purity, RRT 1.00 (purity of III-1)” value [4, 7] was 94.57%, the “HPLC/RRT Purity, impurity at RRT 0.41” value [4, 7] was 0.11% and the “HPLC/RRT Purity, impurity at RRT 0.74” value [4, 7] was 0.03%. The “HPLC/RRT Purity, impurity at RRT 0.94” value [4, 7] was 0.68%, the “HPLC/RRT Purity, impurity at RRT 1.26” value [4, 7] was 0.33% and the “HPLC/RRT Purity, impurity at RRT 1.37” value [4, 7] was 2.51%. For the same compound, the “HPLC/RRT Purity, impurity at RRT 1.38” value [4, 7] was 0.46%, the “HPLC/RRT Purity, RRT 1.00 (purity of III-1)” value [4, 8] was 93.53% and the “HPLC/RRT Purity, impurity at RRT 0.41” value [4, 8] was 0.15%. The “HPLC/RRT Purity, impurity at RRT 0.74” value [4, 8] was 2.49%, the “HPLC/RRT Purity, impurity at RRT 0.94” value [4, 8] was 0.67% and the “HPLC/RRT Purity, impurity at RRT 0.96” value [4, 8] was 0.20%. The “HPLC/RRT Purity, impurity at RRT 1.26” value [4, 8] was 0.19%, the “HPLC/RRT Purity, impurity at RRT 1.37” value [4, 8] was 2.13% and the “HPLC/RRT Purity, impurity at RRT 1.38” value [4, 8] was 0.26%. For the same compound, the “HPLC/RRT Purity, RRT 1.00 (purity of III-1)” value [4, 9] was 92.67%, the “HPLC/RRT Purity, impurity at RRT 0.41” value [4, 9] was 0.17% and the “HPLC/RRT Purity, impurity at RRT 0.74” value [4, 9] was 2.98%. For the same compound, the “HPLC/RRT Purity, impurity at RRT 0.94” value [4, 9] was 0.67%, the “HPLC/RRT Purity, impurity at RRT 0.96” value [4, 9] was 0.25% and the “HPLC/RRT Purity, impurity at RRT 1.26” value [4, 9] was 0.38%. The “HPLC/RRT Purity, impurity at RRT 1.37” value [4, 9] was 2.15%, the “HPLC/RRT Purity, impurity at RRT 1.38” value [4, 9] was 0.20% and the “HPLC/RRT Purity, RRT 1.00 (purity of III-1)” value [4, 10] was 91.45%. The “HPLC/RRT Purity, impurity at RRT 0.41” value [4, 10] was 0.19%, the “HPLC/RRT Purity, impurity at RRT 0.74” value [4, 10] was 3.45% and the “HPLC/RRT Purity, impurity at RRT 0.94” value [4, 10] was 0.67%. The “HPLC/RRT Purity, impurity at RRT 0.96” value [4, 10] was 0.40%, the “HPLC/RRT Purity, impurity at RRT 1.26” value [4, 10] was 0.58% and the “HPLC/RRT Purity, impurity at RRT 1.37” value [4, 10] was 2.26%. The “HPLC/RRT Purity, impurity at RRT 1.38” value [4, 10] was 0.23%, the “HPLC/RRT Purity, RRT 1.00 (purity of III-1)” value [4, 11] was 95.98% and the “HPLC/RRT Purity, impurity at RRT 0.41” value [4, 11] was 0.10%. For the same compound, the “HPLC/RRT Purity, impurity at RRT 0.74” value [4, 11] was 0.15%, the “HPLC/RRT Purity, impurity at RRT 0.94” value [4, 11] was 0.59% and the “HPLC/RRT Purity, impurity at RRT 1.37” value [4, 11] was 2.33%. For the same compound, the “HPLC/RRT Purity, impurity at RRT 1.38” value [4, 11] was 0.29%, the “ee %(SFC)” value ([5]; anti-solvent precipitation: MeOH / MTBE(4V), stirred at 25° C. for 23 days, SFC immediately after preparation) was “ee % (SFC): 2.7%*” and the “ee %(SFC)” value ([5]; equilibration at 50° C. for 10 days in ACN/water(80:20, v/v), SFC immediately after preparation) was “ee % (SFC): 50.7%*”. The “ee %(SFC)” value ([5]; equilibration at 50° C. for 10 days in Acetone/water(60:40, v/v), SFC immediately after preparation) was “ee % (SFC): 56.9%*”, the “ee %(SFC)” value ([5]; equilibration at 50° C. for 10 days in EtOH/water(50:50, v/v), SFC after preparation for about 12 h) was “ee % (SFC): 75.0%#;” and the “ee %(SFC)” value ([5]; equilibration at 50° C. for 10 days in EtOH/water(50:50, v/v), SFC immediately after preparation) was “ee % (SFC): 76.9%*,”. The “ee %(SFC)” value ([5]; equilibration at 50° C. for 10 days in Methanol, SFC immediately after preparation) was “ee % (SFC): 48.4%*”, the “ee %(SFC)” value ([5]; slow evaporation from MeOH, SFC immediately after preparation) was “ee % (SFC): 68.6%*” and the “ee %(SFC)” value ([5]; solid from crystallization from DMF/Acetone water, SFC immediately after preparation) was “ee % (SFC): −0.3%*”.
